Measured values taken from article PMC10018501 (ACS Omega, 2023).
Where “and” joins values, the source holds several entries; their conditions need not be identical. Equal values may be shown once.

What was measured:
[1] = test system: scopolamine-induced rat model; assay: Scopolamine-induced Y-maze test; assay type: in vivo, Wistar rats; conditions: SD-6 2.5, 5, 10 mg/kg p.o.; donepezil 5 mg/kg p.o.; 7 days; vs scopolamine group
[2] = n = 3, mean ± SEM
[3] = in vitro; conditions: PAMPA, pH 7.4
[4] = test system: hippocampal brain (dentate gyrus) neurons; assay: Brain tissue histopathology; assay type: in vivo, rat; conditions: Aβ1–42 rats, SD-6 10 mg/kg, donepezil 5 mg/kg
[5] = biological target: Aβ1–42 (Homo sapiens, UniProt P05067); assay: Self-induced Aβ aggregation inhibition thioflavin T assay; assay type: biochemical; conditions: compound 5, 10 and 20 μM; Aβ 10 μM
Aβ1–42, sequence (P05067 672-713): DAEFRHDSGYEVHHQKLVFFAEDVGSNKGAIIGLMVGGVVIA

[6] = test system: catalase; assay: Ex vivo catalase assay; assay type: in vivo, rat; conditions: scopolamine-treated rats; SD-6 2.5, 5, 10 mg/kg; donepezil 5 mg/kg
[7] = test system: malonaldehyde (MDA); assay: Ex vivo MDA estimation; assay type: in vivo, rat; conditions: scopolamine-treated rats; SD-6 2.5, 5, 10 mg/kg; donepezil 5 mg/kg
[8] = biological target: PAS-AChE (hAChE-PAS region) (Homo sapiens, UniProt P22303); assay: Propidium iodide displacement assay; assay type: binding
PAS-AChE (hAChE-PAS region), sequence (P22303 32-617 isoform P22303-2 limits assumed): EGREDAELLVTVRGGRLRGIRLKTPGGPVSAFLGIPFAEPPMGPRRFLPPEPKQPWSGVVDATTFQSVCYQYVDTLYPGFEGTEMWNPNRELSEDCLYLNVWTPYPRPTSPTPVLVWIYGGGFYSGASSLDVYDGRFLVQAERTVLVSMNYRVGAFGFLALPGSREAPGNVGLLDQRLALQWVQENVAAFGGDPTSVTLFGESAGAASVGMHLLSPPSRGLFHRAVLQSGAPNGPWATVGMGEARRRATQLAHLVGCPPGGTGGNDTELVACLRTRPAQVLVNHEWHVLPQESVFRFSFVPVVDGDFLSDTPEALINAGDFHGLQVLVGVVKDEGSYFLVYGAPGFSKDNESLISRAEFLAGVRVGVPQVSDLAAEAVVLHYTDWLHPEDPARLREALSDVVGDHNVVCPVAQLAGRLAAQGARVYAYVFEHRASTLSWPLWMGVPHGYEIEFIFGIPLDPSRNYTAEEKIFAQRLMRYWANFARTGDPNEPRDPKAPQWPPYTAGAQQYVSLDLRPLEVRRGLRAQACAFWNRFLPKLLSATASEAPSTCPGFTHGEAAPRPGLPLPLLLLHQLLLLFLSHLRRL

[9] = test system: AChE; assay: Ex vivo AChE estimation in hippocampal homogenate; parameters: species or system rat; conditions: scopolamine-treated rats; SD-6 2.5, 5, 10 mg/kg
[10] = test system: glutathione (GSH); assay: Ex vivo reduced glutathione; assay type: in vivo, rat; conditions: scopolamine-treated rats; SD-6 2.5, 5, 10 mg/kg; donepezil 5 mg/kg
[11] = test system: nondifferentiated SH-SY5Y cells; assay: Neuroprotective estimation; assay type: cell-based; conditions: Homo sapiens, 24 h, read-out: cell viability
[12] = biological target: hBACE-1 (Homo sapiens, UniProt P56817); assay: biochemical; conditions: IC50 ± SEM hBACE-1, n = 3
hBACE-1, sequence (P56817 46-501): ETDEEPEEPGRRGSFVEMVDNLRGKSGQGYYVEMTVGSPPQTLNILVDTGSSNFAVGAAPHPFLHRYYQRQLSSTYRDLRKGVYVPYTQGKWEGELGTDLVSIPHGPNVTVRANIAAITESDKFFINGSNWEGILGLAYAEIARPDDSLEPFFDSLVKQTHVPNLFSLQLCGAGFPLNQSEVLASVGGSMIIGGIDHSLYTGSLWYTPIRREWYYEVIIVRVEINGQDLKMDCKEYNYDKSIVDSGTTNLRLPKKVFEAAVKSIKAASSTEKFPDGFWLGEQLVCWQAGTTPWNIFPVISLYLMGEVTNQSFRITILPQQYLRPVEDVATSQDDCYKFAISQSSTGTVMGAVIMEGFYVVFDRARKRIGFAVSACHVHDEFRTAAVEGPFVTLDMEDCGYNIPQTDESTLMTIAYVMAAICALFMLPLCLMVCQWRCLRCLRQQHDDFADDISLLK

[13] = biological target: T1, hAChE (Homo sapiens, UniProt P22303); assay: hAChE enzyme kinetics; assay type: biochemical; conditions: substrate ATCI
T1 sequence (P22303 32-617 isoform P22303-2 limits assumed): as the sequence (P22303 32-617 isoform P22303-2 limits assumed) above

[14] = test system: ICV Aβ1–42-induced rat model; assay: Aβ-induced Morris water maze test; conditions: SD-6 10 mg/kg, donepezil 5 mg/kg, orally 9 days; vs Aβ group
[15] = biological target: T1, hAChE; assay: In vitro hAChE inhibition assay; assay type: biochemical
[16] = biological target: Aβ1–42 with hAChE (Homo sapiens, UniProt P22303); assay: hAChE-induced Aβ aggregation inhibition thioflavin T assay; assay type: biochemical; conditions: compound 5, 10 and 20 μM; Aβ 10 μM
Aβ1–42 with hAChE, sequence (P22303 32-588 isoform P22303-2): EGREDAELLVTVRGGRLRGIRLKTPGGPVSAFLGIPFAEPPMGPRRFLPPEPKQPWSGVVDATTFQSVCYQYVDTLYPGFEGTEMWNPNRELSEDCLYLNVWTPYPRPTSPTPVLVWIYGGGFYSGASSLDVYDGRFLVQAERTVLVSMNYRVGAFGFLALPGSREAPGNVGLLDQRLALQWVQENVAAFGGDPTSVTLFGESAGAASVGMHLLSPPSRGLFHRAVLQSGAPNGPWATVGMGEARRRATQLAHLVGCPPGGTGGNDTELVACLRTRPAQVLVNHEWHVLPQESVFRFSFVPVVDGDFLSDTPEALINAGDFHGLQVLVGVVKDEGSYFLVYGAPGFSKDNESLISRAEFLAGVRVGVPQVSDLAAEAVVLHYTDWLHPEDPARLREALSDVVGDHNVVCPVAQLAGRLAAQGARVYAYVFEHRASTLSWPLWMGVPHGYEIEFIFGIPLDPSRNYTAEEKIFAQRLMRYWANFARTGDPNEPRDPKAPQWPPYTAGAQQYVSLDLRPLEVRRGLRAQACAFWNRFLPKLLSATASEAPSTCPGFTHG

[17] = test system: acetylcholine (ACh); assay: Ex vivo ACh estimation; assay type: in vivo, rat; conditions: scopolamine-treated rats; SD-6 2.5, 5, 10 mg/kg
[18] = test system: female Wistar rats; assay: Acute oral toxicity study; assay type: in vivo
[19] = test system: superoxide dismutase (SOD); assay: Ex vivo SOD assay; assay type: in vivo, rat; conditions: scopolamine-treated rats; SD-6 2.5, 5, 10 mg/kg; donepezil 5 mg/kg
[20] = test system: differentiated SH-SY5Y cells; assay: Neurotoxicity estimation; assay type: cell-based; conditions: 10, 20, 40 and 80 μM, 24 h
[21] = biological target: hBChE (Equus caballus, UniProt P81908); assay: In vitro hBChE inhibition assay; assay type: biochemical, human
hBChE, sequence (P81908 whole entry): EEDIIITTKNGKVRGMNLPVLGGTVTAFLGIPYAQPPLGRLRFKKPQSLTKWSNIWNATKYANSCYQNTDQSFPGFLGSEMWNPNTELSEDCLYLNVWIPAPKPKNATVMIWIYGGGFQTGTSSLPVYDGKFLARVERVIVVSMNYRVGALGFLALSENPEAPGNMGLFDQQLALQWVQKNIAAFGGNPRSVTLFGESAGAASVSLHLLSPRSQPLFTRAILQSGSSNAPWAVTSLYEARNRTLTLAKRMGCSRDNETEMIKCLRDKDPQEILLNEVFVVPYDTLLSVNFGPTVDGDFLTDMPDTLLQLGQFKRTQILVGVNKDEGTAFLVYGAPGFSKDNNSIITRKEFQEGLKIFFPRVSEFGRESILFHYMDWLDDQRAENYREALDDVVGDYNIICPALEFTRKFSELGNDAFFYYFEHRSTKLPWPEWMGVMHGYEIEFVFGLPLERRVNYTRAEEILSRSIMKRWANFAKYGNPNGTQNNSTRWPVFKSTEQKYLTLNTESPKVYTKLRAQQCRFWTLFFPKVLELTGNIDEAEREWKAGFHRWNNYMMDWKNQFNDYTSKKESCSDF

Q: Which “% spontaneous alterations” value [1] does the source give for `S=c1oc(-c2ccccc2)nn1CN1CCN(Cc2ccccc2)CC1` [SD-6, 3-((4-Benzylpiperazin-1-yl)methyl)-5-phenyl-1,3,4-oxadiazole-2(3H)-thione] here?
A: significant increase in % spontaneous alterations in a dose-dependent manner

Q: And the “Pe(exp) PAMPA–BBB” value [2]?
A: 5.643 10^–6 cm/s

Q: What about the Papp [3] of the same molecule?
A: 5.643 ± 0.021 ×10⁻⁶ cm/s

Q: What about the “neuronal morphology (dentate gyrus)” value [4] of the same molecule?
A: less disordered neuronal arrangement and vacuolar fibrosis

Q: And the “neuronal density (dentate gyrus)” value ([4]; vs Aβ1–42-treated group)?
A: higher

Q: What about the “% Aβ aggregation inhibition, self-induced” value [5] of the same molecule?
A: 22–69%

Q: What about the catalase activity [6] of the same molecule?
A: elevation of both the biomarkers

Q: And the MDA level [7]?
A: declines in MDA

Q: What about the “PAS-AChE propidium iodide displacement (%)” value ([8]; [I] = 10 μM) of the same molecule?
A: 27.3% and 27.316 ± 1.208%

Q: And the “PAS-AChE propidium iodide displacement (%)” value ([8]; [I] = 50 μM)?
A: 56.2% and 56.238 ± 1.338%

Q: And the “AChE level (hippocampal)” value [9]?
A: dose-dependent decrease

Q: What about the GSH level [10] of the same molecule?
A: elevation of both the biomarkers

Q: What about the viability at 5 µM [11] of the same molecule?
A: 61.4%

Q: And the viability at 10 µM [11]?
A: 74%

Q: And the viability at 20 µM [11]?
A: 83.6%

Q: What about the IC50 [12] of the same molecule?
A: 753 ± 18 nM

Q: And the “type of inhibition (Lineweaver–Burk plot)” value [13]?
A: mixed-type noncompetitive

Q: What about the “escape latency time (ELT)” value [14] of the same molecule?
A: significant change as compared to the Aβ group

Q: What about the “time spent in the platform zone” value [14] of the same molecule?
A: significantly (^bp < 0.001) higher

Q: And the “total number of entries to the platform zone” value [14]?
A: significantly (^bp < 0.001) different from the Aβ-treated animal group

Q: And the IC50 ([15]; IC50 ± SEM hAChE, n = 3)?
A: 907 ± 11 nM

Q: And the IC50 ([15]; hAChE inhibitory activity (good/moderate/poor), class in words)?
A: < 1000 nM

Q: And the “% Aβ aggregation inhibition, hAChE-induced” value [16]?
A: 41–81%

Q: And the ACh brain level [17]?
A: dose-dependent increase

Q: And the “weight loss (initial, in some animals)” value ([18]; 100–500 mg/kg, p.o., regained in 10–12 days)?
A: 12–25%

Q: And the “organ histopathology (kidney, liver, lungs, heart; H&E)” value ([18]; after 14 days)?
A: normal tissue appearance

Q: What about the “hepatic and renal function tests” value ([18]; blood samples after acute toxicity study) of the same molecule?
A: within the range

Q: And the SOD level [19]?
A: elevation of SOD levels

Q: What about the “neurotoxicity (MTT, cell population and morphology)” value [20] of the same molecule?
A: non-neurotoxic

Q: What about the IC50 [21] of the same molecule?
A: 1580 ± 37 nM
